Patent publication US20220127247A1, “N-(PYRIDIN-2-YL)PYRIDINE-SULFONAMIDE DERIVATIVES AND THEIR USE IN THE TREATMENT OF DISEASE” (NOVARTIS AG, priority 2019, published 2022)

Target: T1, delF508-CFTR (Homo sapiens, UniProt P13569, DEL508-508)
T1 construct: expressed in transfected cells
Assay: Measurement of delF508-CFTR-HRP surface expression in CFBE41o- cells
Assay type: cell-based
Details: for EC50: HRP-tagged delF508-CFTR in CFBE41o- cells, 24 h with compound, luminescence, 10-point curve, top 10 μM; for Emax: efficacy relative to reference compound 3-(6-(1-(2,2-difluorobenzo[d][1,3]dioxol-5-yl)cyclopropane-1-carboxamido)-3-methylpyridin-2-yl)benzoic acid, CFBE41o- cells, 24 h, read-out: DelF508-CFTR-HRP Amax %
Source text: Measurement of delF508-CFTR-HRP Surface Expression in CFBE41o-Cells
This assay quantifies the cell surface expressions of the mutant CFTR channel using an extracellular HRP tag.
A cellular assay was developed to measure surface expression of horseradish peroxidase (HRP) tagged delF508-CFTR in the human bronchial epithelial immortalized CFBE41o-cell line (Phuan, P. W., et al, (2014) Molecular Pharmacology 86:42-51). Specifically, the HRP sequence was inserted into the fourth extracellular loop of delF508-CFTR and stably expressed in CFBE41o-cells. Cells were seeded in 384 well plate at a density of 5000 cells/well and incubated at 37° C. for 12 to 24 hours in medium (Gibco MEM #11095, 10% FBS, 10 mM HEPES, […], 200 μg/mL G418, 3 μg/mL Puromycin). The delF508-CFTR-HRP expression was induced with 500 ng/mL doxycycline (Sigma D-9891, dissolved in H2O and sterile filtered) in medium and the cells were incubated at 37° C. for 48 h. Old medium was removed and fresh medium was added containing 500 ng/mL doxycycline and unknown test compound at required test concentration in DMSO, not exceeding 0.5% final DMSO concentration. The highest concentration tested was 10 μM with a 10-point concentration response curve using a 3-fold dilution. After addition of compounds, the cells were incubated for 24 h at 37° C. On the final day, cells were washed four times in PBS containing 1 mM MgCl2 and 0.1 mM CaCl2. HRP-Substrate (SuperSignal ELISA Pico, Fisher #37069) 20 μl/well was added and the luminescence signal was determined (Viewlux, Perkin Elmer). Light was emitted upon addition of exogenous HRP-Substrate only when delF508-CFTR-HRP reached the cell surface and the HRP tag was accessible to the HRP-Substrate (note: HRP-Substrate cannot cross the lipid bilayer to reach delF508-CFTR-HRP misfolded within the cell).
The median activity for the lowest concentration of the compounds on each assay plate was calculated and this value was used to normalize the signal for each well on the respective plate. Three replicates at each concentrations for every compound were run to determine one EC50. The median value was determined and used to calculate compound activities as described below. Effective half maximal values (EC50) were calculated for each compound by performing logistic regression on measured dose-response data points using the equation: […]
where “Y” is the observed activity, “Bottom” is the lowest observed value, “Top” is the highest observed value, and the “Hill coefficient” gives the largest absolute value of the slope. The curve fitting is carried out by a curve fitting program implemented at GNF using Matlab (Mathworks).
The dose response curves also were used to calculate Fold Change (FC) using the equation: […]
Compound efficacy relative to the reference compound 3-(6-(1-(2,2-difluorobenzo[d][1,3]dioxol-5-yl)cyclopropane-1-carboxamido)-3-methylpyridin-2-yl)benzoic acid was determined using the following formula: […]

T1 sequence (P13569 with tags, fused parts or gaps DEL508-508): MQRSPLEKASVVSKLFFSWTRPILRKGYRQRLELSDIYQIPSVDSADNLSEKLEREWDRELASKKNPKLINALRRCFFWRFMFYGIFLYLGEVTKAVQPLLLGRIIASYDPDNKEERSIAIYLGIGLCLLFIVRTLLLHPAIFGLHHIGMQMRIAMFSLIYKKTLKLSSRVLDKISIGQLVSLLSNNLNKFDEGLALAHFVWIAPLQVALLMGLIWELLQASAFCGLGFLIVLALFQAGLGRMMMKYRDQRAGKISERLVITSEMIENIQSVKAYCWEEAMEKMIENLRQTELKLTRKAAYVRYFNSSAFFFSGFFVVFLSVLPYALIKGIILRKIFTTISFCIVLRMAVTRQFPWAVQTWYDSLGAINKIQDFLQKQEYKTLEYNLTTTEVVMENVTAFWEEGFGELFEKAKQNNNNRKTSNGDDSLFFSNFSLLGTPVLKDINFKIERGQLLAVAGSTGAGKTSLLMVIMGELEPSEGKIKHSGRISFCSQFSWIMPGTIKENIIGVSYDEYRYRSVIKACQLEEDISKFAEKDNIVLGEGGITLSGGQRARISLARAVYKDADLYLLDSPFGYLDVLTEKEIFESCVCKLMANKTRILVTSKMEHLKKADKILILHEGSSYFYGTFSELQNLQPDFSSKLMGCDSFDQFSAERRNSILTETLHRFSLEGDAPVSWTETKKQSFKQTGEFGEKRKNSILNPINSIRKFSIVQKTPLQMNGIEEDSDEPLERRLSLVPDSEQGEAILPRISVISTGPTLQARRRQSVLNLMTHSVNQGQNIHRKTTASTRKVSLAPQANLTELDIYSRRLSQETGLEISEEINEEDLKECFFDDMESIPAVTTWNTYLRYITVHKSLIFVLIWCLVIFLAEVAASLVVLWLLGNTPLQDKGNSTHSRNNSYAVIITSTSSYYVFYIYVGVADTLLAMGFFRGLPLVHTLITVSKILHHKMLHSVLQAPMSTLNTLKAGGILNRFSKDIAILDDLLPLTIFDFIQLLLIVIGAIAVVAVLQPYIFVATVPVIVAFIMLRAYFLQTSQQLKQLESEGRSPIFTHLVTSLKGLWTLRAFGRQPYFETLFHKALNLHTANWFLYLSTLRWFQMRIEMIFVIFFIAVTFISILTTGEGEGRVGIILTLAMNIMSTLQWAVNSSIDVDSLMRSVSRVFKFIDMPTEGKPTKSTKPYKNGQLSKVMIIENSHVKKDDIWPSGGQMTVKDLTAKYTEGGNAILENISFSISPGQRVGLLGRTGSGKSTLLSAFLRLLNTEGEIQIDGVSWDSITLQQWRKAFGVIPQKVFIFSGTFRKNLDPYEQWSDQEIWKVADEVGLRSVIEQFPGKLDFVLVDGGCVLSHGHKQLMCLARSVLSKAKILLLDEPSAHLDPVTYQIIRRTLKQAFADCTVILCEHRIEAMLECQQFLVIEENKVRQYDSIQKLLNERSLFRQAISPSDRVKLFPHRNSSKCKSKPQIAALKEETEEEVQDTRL

Compound | EC50 | Emax
Cc1ccccc1-c1nc(NS(=O)(=O)c2cccc(NCCCCC(=O)O)n2)ccc1C(F)(F)F [Compound 43, 5-((6-(N-(6-(o-tolyl)-5-(trifluoromethyl)pyridin-2-yl)sulfamoyl)pyridin-2-yl)amino)pentanoic Acid] | 2370 nM | 407%
CCCCN(CCC(=O)O)c1cccc(S(=O)(=O)Nc2ccc(C(F)(F)F)c(-c3cc(F)ccc3C)n2)n1 [Compound 153, 3-(butyl(6-(N-(6-(5-fluoro-2-methylphenyl)-5-(trifluoromethyl)pyridin-2-yl)sulfamoyl)pyridin-2-yl)amino)propanoic Acid] | 820 nM | 770%
COCCN(CCCC(=O)O)c1cccc(S(=O)(=O)Nc2ccc(C(F)(F)F)c(-c3ccccc3C)n2)n1 [Compound 158, 4-((2-methoxyethyl)(6-(N-(6-(o-tolyl)-5-(trifluoromethyl)pyridin-2-yl)sulfamoyl)pyridin-2-yl)amino)butanoic Acid] | 1810 nM | 839%
Cc1c(F)cccc1-c1nc(NS(=O)(=O)c2cccc(N3CCC(C)(CC(=O)O)CC3)n2)ccc1C(F)(F)F [Compound 13, 2-(1-(6-(N-(6-(3-fluoro-2-methylphenyl)-5-(trifluoromethyl)pyridin-2-yl)sulfamoyl)pyridin-2-yl)-4-methylpiperidin-4-yl)acetic Acid] | 2400 nM | 370%
CCc1ccc(F)cc1-c1nc(NS(=O)(=O)c2cccc(N(CCC(=O)O)C(C)C)n2)ccc1C(F)(F)F [Compound 119, 3-((6-(N-(6-(2-ethyl-5-fluorophenyl)-5-(trifluoromethyl)pyridin-2-yl)sulfamoyl)pyridin-2-yl)(isopropyl)amino)propanoic Acid] | 1410 nM | –
Cc1ccccc1-c1nc(NS(=O)(=O)c2cccc(NCC(=O)O)n2)ccc1C(F)(F)F [Compound 146, (6-(N-(6-(o-tolyl)-5-(trifluoromethyl)pyridin-2-yl)sulfamoyl)pyridin-2-yl)glycine] | 2500 nM | 60%
Cc1ccccc1-c1nc(NS(=O)(=O)c2cccc(N(C)CCCC(=O)O)n2)ccc1C(F)(F)F [Compound 37, 4-(methyl(6-(N-(6-(o-tolyl)-5-(trifluoromethyl)pyridin-2-yl)sulfamoyl)pyridin-2-yl)amino)butanoic Acid] | 2050 nM | 982%
CCC(CC(=O)O)Nc1cc(S(=O)(=O)Nc2ccc(Cl)c(-c3c(C)cccc3C)n2)ccn1 (stereo not shown) [Compound 141] | 3940 nM | 291%
Cc1ccccc1-c1nc(NS(=O)(=O)c2cccc(OCCC(=O)O)n2)ccc1C(F)(F)F [Compound 121, 3-((6-(N-(6-(o-tolyl)-5-(trifluoromethyl)pyridin-2-yl)sulfamoyl)pyridin-2-yl)nxy)propanoic Acid] | 3280 nM | 167%
CCN(CCC(=O)O)c1cccc(S(=O)(=O)Nc2ccc(C(F)(F)F)c(-c3cc(F)ccc3C)n2)n1 [Compound 61, 3-(ethyl(6-(N-(6-(5-fluoro-2-methylphenyl)-5-(trifluoromethyl)pyridin-2-yl)sulfamoyl)pyridin-2-yl)amino)propanoic Acid] | 3560 nM | 736%
Cc1ccccc1-c1nc(NS(=O)(=O)c2cccc(N[C@@H]3[C@@H]4CC[C@@H](C4)[C@@H]3C(=O)O)n2)ccc1C(F)(F)F (racemic) [109a 109b (racemic mixture)] | 2320 nM | 700%
Cc1ccccc1-c1nc(NS(=O)(=O)c2cccc(NC3CCCC(C(=O)O)C3)n2)ccc1C(F)(F)F (mixture of isomers) [Compound 105, 3-((6-(N-(6-(o-tolyl)-5-(trifluoromethyl)pyridin-2-yl)sulfamoyl)pyridin-2-yl)amino)cyclohexane-1-carboxylic Acid] | 1810 nM | 361%
Cc1ccccc1-c1nc(NS(=O)(=O)c2cccc(NCCC(=O)O)n2)ccc1C(F)(F)F [Compound 35, 3-((6-(N-(6-(o-tolyl)-5-(trifluoromethyl)pyridin-2-yl)sulfamoyl)pyridin-2-yl)amino)propanoic acid] | 2600 nM | 209%
Cc1ccccc1-c1nc(NS(=O)(=O)c2cccc(N(C)CC3(C(=O)O)CCC3)n2)ccc1C(F)(F)F [Compound 137, 1-((methyl(6-(N-(6-(o-tolyl)-5-(trifluoromethyl)pyridin-2-yl)sulfamoyl)pyridin-2-yl)amino)methyl)cyclobutane-1-carboxylic Acid] | 2030 nM | –
CC(C)c1ccccc1-c1nc(NS(=O)(=O)c2cccc(N(C)CCC(=O)O)n2)ccc1C(F)(F)F [Compound 44, 3-((6-(N-(6-(2-isopropylphenyl)-5-(trifluoromethyl)pyridin-2-yl)sulfamoyl)pyridin-2-yl)(methyl)amino)propanoic Acid] | 1520 nM | –
CN(CCCC(=O)O)c1cccc(S(=O)(=O)Nc2ccc(C(F)(F)F)c(-c3ccccc3C3CC3)n2)n1 [Compound 41, 4-((6-(N-(6-(2-cyclopropylphenyl)-5-(trifluoromethyl)pyridin-2-yl)sulfamoyl)pyridin-2-yl)(methyl)amino)butanoic Acid] | 1480 nM | –
Cc1ccc(F)cc1-c1nc(NS(=O)(=O)c2cccc(N3CCCC(C)(CC(=O)O)C3)n2)ccc1C(F)(F)F (stereo not shown) [Compound 52, 2-(1-(6-(N-(6-(5-fluoro-2-methylphenyl)-5-(trifluoromethyl)pyridin-2-yl)sulfamoyl)pyridin-2-yl)-3-methylpiperidin-3-yl)acetic Acid] | 1490 nM | –

Second part, the compound after the results:

EC50 | Emax | Compound
1390 nM | – | Cc1ccccc1-c1nc(NS(=O)(=O)c2cccc(N3CCCC(CCC(=O)O)C3)n2)ccc1C(F)(F)F (stereo not shown) [Compound 73, 3-(1-(6-(N-(6-(o-tolyl)-5-(trifluoromethyl)pyridin-2-yl)sulfamoyl)pyridin-2-yl)piperidin-3-yl)propanoic acid]
1600 nM | – | Cc1ccccc1-c1nc(NS(=O)(=O)c2cccc(N3CCCC(C)(CC(=O)O)C3)n2)ccc1C(F)(F)F (stereo not shown) [Compound 51, 2-(3-methyl-1-(6-(N-(6-(o-tolyl)-5-(trifluoromethyl)pyridin-2-yl)sulfamoyl)pyridin-2-yl)piperidin-3-yl)acetic Acid]
1450 nM | 945% | C=Cc1ccccc1-c1nc(NS(=O)(=O)c2cccc(N3CCC[C@H](CC(=O)OCC)C3)n2)ccc1C(F)(F)F [Compound 77, ethyl (R)-2-(1-(6-(N-(5-(trifluoromethyl)-6-(2-vinylphenyl)pyridin-2-yl)sulfamoyl)pyridin-2-yl)piperidin-3-yl)acetate]
1410 nM | – | C=Cc1ccccc1-c1nc(NS(=O)(=O)c2cccc(N3CCC[C@@H](CC(=O)OC)C3)n2)ccc1C(F)(F)F [Compound 78, methyl (S)-2-(1-(6-(N-(5-(trifluoromethyl)-6-(2-vinylphenyl)pyridin-2-yl)sulfamoyl)pyridin-2-yl)piperidin-3-yl)acetate]
1610 nM | – | Cc1ccccc1-c1nc(NS(=O)(=O)c2cccc(N3CCC[C@](C)(CC(=O)O)C3)n2)ccc1C(F)(F)F (single isomer, unassigned) [Compound 123]
1090 nM | – | C=Cc1ccccc1-c1nc(NS(=O)(=O)c2cccc(N3CCCC(CCC(=O)O)C3)n2)ccc1C(F)(F)F (stereo not shown) [Compound 74, 3-(1-(6-(N-(5-(trifluoromethyl)-6-(2-vinylphenyl)pyridin-2-yl)sulfamoyl)pyridin-2-yl)piperidin-3-yl)propanoic Acid]
2010 nM | 495% | O=C(O)CC1CCN(c2cccc(S(=O)(=O)Nc3ccc(C(F)(F)F)c(-c4ccccc4-c4ccccc4)n3)n2)CC1 [Compound 16, 2-(1-(6-(N-(6-([1,1′-biphenyl]-2-yl)-5-(trifluoromethyl)pyridin-2-yl)sulfamoyl)pyridin-2-yl)piperidin-4-yl)acetic Acid]
2530 nM | 314% | O=C(O)CCCNc1cccc(S(=O)(=O)Nc2ccc(C(F)(F)F)c(-c3ccccc3C3CC3)n2)n1 [Compound 40, 4-((6-(N-(6-(2-cyclopropylphenyl)-5-(trifluoromethyl)pyridin-2-yl)sulfamoyl)pyridin-2-yl)amino)butanoic Acid]
